Results taken from ChEMBL document CHEMBL3407493, “Medicinal uses, phytochemistry and pharmacology of family Sterculiaceae: a review” (Eur J Med Chem, 2015).
Values after ≈ are worked out from the molar mass of the structure shown.

Assays:
SK-MEL-28 = experiment: Cytotoxicity against human SK-MEL-28 cells assessed as growth inhibition; format: functional, cell-based
[1] = Toxicity in Artemia salina Linn.; format: organism-based; conditions: in vivo
[2] = Antibacterial activity against Salmonella setubal ATCC 19196; format: functional, Salmonella enterica subsp. enterica serovar Setubal; conditions: Salmonella enterica
Escherichia coli = experiment: Antibacterial activity against Escherichia coli ATCC 11103; format: functional
Klebsiella pneumoniae = experiment: Antibacterial activity against Klebsiella pneumoniae ATCC 10031; format: functional
[3] = Antioxidant activity assessed as DPPH radical scavenging activity; format: physicochemical
Liver microsome = experiment: Antioxidant activity in rat liver microsomes assessed as inhibition of NADPH-dependent lipid peroxidation; format: functional
[4] = Antioxidant activity assessed as inhibition of linoleic acid autooxidation; format: physicochemical
[5] = Cytotoxicity against human Bel7402 cells assessed as growth inhibition; format: functional, cell-based; conditions: Bel-7402

SMILES: C=C(C)[C@@H]1CC[C@]2(C(=O)O)CC[C@]3(C)[C@H](CC[C@@H]4[C@@]5(C)CC[C@H](OC(=O)/C=C/c6ccc(O)c(O)c6)C(C)(C)[C@@H]5CC[C@]43C)[C@@H]12
- IC50 (SK-MEL-28): 81700 nM

SMILES: CC1=C2OC[C@@H](C)c3c(O)cc(C)c(c32)C(=O)C1=O
- LC50 [1]: 50.7 µg/mL (≈ 196 µM)

SMILES: CC(C)CC(C(=O)NC1C(=O)NC(Cc2ccccc2)C(=O)N/C=C\c2ccc(cc2)OC1C(C)C)N(C)C (configuration not stated)
- MIC [2]: 50 µg/mL (≈ 93.5 µM)
- MIC (Escherichia coli): 25 µg/mL (≈ 46.8 µM)
- MIC (Klebsiella pneumoniae): 25 µg/mL (≈ 46.8 µM)

SMILES: COc1cc(C)c2oc(=O)c(C)cc2c1C(C)C
- LC50 [1]: 24.2 µg/mL (≈ 98.2 µM)

SMILES: Cc1cc2c(C(C)C)c(O)cc(C)c2oc1=O
- LC50 [1]: 0.61 µg/mL (≈ 2.63 µM)

SMILES: Cc1c2c3c(ccc(C)c3oc1=O)C(C)CO2 (configuration not stated)
- LC50 [1]: 188 µg/mL (≈ 816 µM)

SMILES: Oc1cc(O)c2c(c1)O[C@H](c1ccc(O)c(O)c1)[C@H](O)[C@H]2c1c(O)cc(O)c2c1O[C@H](c1ccc(O)c(O)c1)[C@H](O)[C@H]2c1c(O)cc(O)c2c1O[C@H](c1ccc(O)c(O)c1)[C@H](O)[C@H]2c1c(O)cc(O)c2c1O[C@H](c1ccc(O)c(O)c1)[C@H](O)C2
- IC50 [3]: 2.1 µg/mL (≈ 1.82 µM)
- IC50 (Liver microsome): 25 µg/mL (≈ 21.6 µM)
- IC50 [4]: 2.7 µg/mL (≈ 2.34 µM)

SMILES: OC[C@H]1O[C@@H](O[C@H]2[C@H]3c4c(O)cc(O)cc4O[C@]2(c2ccc(O)c(O)c2)Oc2cc(O)c4c(c23)O[C@H](c2ccc(O)c(O)c2)[C@H](O)C4)[C@H](O)[C@@H](O)[C@H]1O
- IC50 [3]: 3.9 µg/mL (≈ 5.28 µM)
- IC50 (Liver microsome): 18 µg/mL (≈ 24.4 µM)
- IC50 [4]: 2.5 µg/mL (≈ 3.38 µM)

SMILES: Oc1cc(O)c2c(c1)O[C@]1(c3ccc(O)c(O)c3)Oc3cc(O)c4c(c3[C@H]2[C@@H]1O[C@@H]1OC[C@@H](O)[C@H](O)[C@H]1O)O[C@H](c1ccc(O)c(O)c1)[C@H](O)C4
- IC50 [3]: 3.9 µg/mL (≈ 5.5 µM)
- IC50 (Liver microsome): 21 µg/mL (≈ 29.6 µM)
- IC50 [4]: 2.2 µg/mL (≈ 3.1 µM)

SMILES: OC[C@H]1O[C@@H](O[C@@H]2[C@@H]3c4c(O)cc(O)cc4O[C@]2(c2ccc(O)c(O)c2)Oc2cc(O)c4c(c23)O[C@H](c2ccc(O)c(O)c2)[C@H](O)[C@H]4c2c(O)cc(O)c3c2O[C@H](c2ccc(O)c(O)c2)[C@H](O)C3)[C@H](O)[C@@H](O)[C@H]1O
- IC50 [3]: 2.4 µg/mL (≈ 2.34 µM)
- IC50 (Liver microsome): 36 µg/mL (≈ 35.1 µM)
- IC50 [4]: 2 µg/mL (≈ 1.95 µM)

SMILES: Oc1cc(O)c2c(c1)O[C@]1(c3ccc(O)c(O)c3)Oc3cc(O)c4c(c3[C@@H]2[C@H]1O[C@@H]1OC[C@@H](O)[C@H](O)[C@H]1O)O[C@H](c1ccc(O)c(O)c1)[C@H](O)[C@H]4c1c(O)cc(O)c2c1O[C@H](c1ccc(O)c(O)c1)[C@H](O)C2
- IC50 [3]: 2.3 µg/mL (≈ 2.31 µM)
- IC50 (Liver microsome): 28 µg/mL (≈ 28.1 µM)
- IC50 [4]: 1.9 µg/mL (≈ 1.91 µM)

SMILES: C=C(C)[C@@H]1CC[C@]2(C(=O)O)CC[C@]3(COC(=O)c4ccccc4)[C@H](CC[C@@H]4[C@@]5(C)CC[C@H](OC(C)=O)C(C)(C)[C@@H]5CC[C@]43C)[C@@H]12
- IC50 (SK-MEL-28): 32000 nM

SMILES: Oc1cc(O)c2c(c1)O[C@H](c1ccc(O)c(O)c1)[C@H](O)[C@H]2c1c(O)cc2c(c1O)C[C@@H](O)[C@@H](c1ccc(O)c(O)c1)O2
- IC50 [3]: 2.3 µg/mL (≈ 3.98 µM)
- IC50 (Liver microsome): 12 µg/mL (≈ 20.7 µM)
- IC50 [4]: 2.3 µg/mL (≈ 3.98 µM)

SMILES: CC1=Cc2c(C(C)C)ccc(C)c2C(=O)C1=O
- LC50 [1]: 2.08 µg/mL (≈ 9.11 µM)

SMILES: Cc1c(C)c2c(c(C)c1O)CCC(C)(CCCC(C)CCCC(C)CCCC(C)C)O2 (racemic) [alpha-TOCHOPHEROL]
- IC50 [3]: 4.6 µg/mL (≈ 10.7 µM)
- IC50 (Liver microsome): 5.6 µg/mL (≈ 13 µM)
- IC50 [4]: 7.7 µg/mL (≈ 17.9 µM)

SMILES: Oc1cc(O)c2c(c1)O[C@H](c1ccc(O)c(O)c1)[C@H](O)C2 [(-)-EPICATECHIN]
- IC50 [3]: 0.62 µg/mL (≈ 2.14 µM)
- IC50 (Liver microsome): 29 µg/mL (≈ 99.9 µM)
- IC50 [4]: 0.62 µg/mL (≈ 2.14 µM)

SMILES: O=C(N[C@H](CO)[C@H](O)c1ccc([N+](=O)[O-])cc1)C(Cl)Cl [CHLORAMPHENICOL]
- MIC [2]: 3.12 µg/mL (≈ 9.66 µM)
- MIC (Escherichia coli): 3.12 µg/mL (≈ 9.66 µM)
- MIC (Klebsiella pneumoniae): 1.56 µg/mL (≈ 4.83 µM)

SMILES: CC(C)(O)/C=C/C(=O)[C@](C)(O)[C@H]1[C@H](O)C[C@@]2(C)[C@@H]3CC=C4[C@@H](C[C@H](O)C(=O)C4(C)C)[C@]3(C)C(=O)C[C@]12C [CUCURBITACIN D]
- IC50 (SK-MEL-28): 1220 nM
- IC50 [5]: 1410 nM

SMILES: CC1(C)C(=O)[C@@H](O)C[C@@H]2C1=CC[C@@H]1[C@@]2(C)C(=O)C[C@]2(C)[C@@H]([C@@](C)(O)C(=O)CC(O)C(C)(C)O)[C@H](O)C[C@@]12C (some centres not stated) [CUCURBITACIN G]
- IC50 (SK-MEL-28): 1280 nM
- IC50 [5]: 1370 nM

SMILES: CC1=Cc2c(c(C)cc(O)c2C(C)C)C(=O)C1=O [MANSONONE G]
- LC50 [1]: 64.4 µg/mL (≈ 263 µM)

SMILES: Oc1cc(O)c2c(c1)O[C@H](c1ccc(O)c(O)c1)[C@H](O)[C@H]2c1c(O)cc(O)c2c1O[C@H](c1ccc(O)c(O)c1)[C@H](O)C2 [PROCYANIDIN B2]
- IC50 [3]: 1.4 µg/mL (≈ 2.42 µM)
- IC50 (Liver microsome): 12 µg/mL (≈ 20.7 µM)

SMILES: Oc1cc(O)c2c(c1)O[C@H](c1ccc(O)c(O)c1)[C@H](O)[C@H]2c1c(O)cc(O)c2c1O[C@H](c1ccc(O)c(O)c1)[C@H](O)[C@H]2c1c(O)cc(O)c2c1O[C@H](c1ccc(O)c(O)c1)[C@H](O)C2 [PROCYANIDIN C1]
- IC50 [3]: 6.2 µg/mL (≈ 7.15 µM)
- IC50 (Liver microsome): 68 µg/mL (≈ 78.5 µM)
- IC50 [4]: 5.3 µg/mL (≈ 6.11 µM)
